A value given as a limit tells only on which side of the number the result lay.

For test [1], the target named is CDK9/Cyclin T1 complex (Homo sapiens, UniProt P50750). Put plainly: CDK9 kinase inhibition assay (Caliper/LabChip EZ Reader). The settings on record: CDK9/Cyclin T1 8 nM, ATP 2 mM, 15 min at 27° C. Type of test: biochemical. In a few lines: (§1)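 Caliper/LabChip mobility-shift kinase assays at 27° C. CDK9/Cyclin T1 8 nM with 2 μM 5-FAM-CDK9tide, 10 mM MgCl2, 15 min; CDK12/Cyclin K 50 nM with 5-FAM-CDK9tide 2 μM, 2 mM MgCl2, 3 hr; CDK2/Cyclin E1 0.5 nM with 5-FAM-CDK7tide 2 μM, 2 mM MgCl2, 35 min; CDK7 35 min.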
Sequence of CDK9/Cyclin T1 complex (P50750 whole entry): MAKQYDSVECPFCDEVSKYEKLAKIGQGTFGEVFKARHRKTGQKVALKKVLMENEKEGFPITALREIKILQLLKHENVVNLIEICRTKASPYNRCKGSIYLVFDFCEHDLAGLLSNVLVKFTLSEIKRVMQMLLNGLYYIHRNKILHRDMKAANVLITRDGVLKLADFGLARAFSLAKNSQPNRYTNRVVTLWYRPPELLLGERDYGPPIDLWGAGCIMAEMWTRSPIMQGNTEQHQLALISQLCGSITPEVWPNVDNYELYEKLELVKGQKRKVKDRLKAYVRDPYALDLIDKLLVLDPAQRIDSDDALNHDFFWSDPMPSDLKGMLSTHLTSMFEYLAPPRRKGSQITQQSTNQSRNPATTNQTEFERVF
Sequence of CDK9/Cyclin T1 complex (O60563 whole entry partner): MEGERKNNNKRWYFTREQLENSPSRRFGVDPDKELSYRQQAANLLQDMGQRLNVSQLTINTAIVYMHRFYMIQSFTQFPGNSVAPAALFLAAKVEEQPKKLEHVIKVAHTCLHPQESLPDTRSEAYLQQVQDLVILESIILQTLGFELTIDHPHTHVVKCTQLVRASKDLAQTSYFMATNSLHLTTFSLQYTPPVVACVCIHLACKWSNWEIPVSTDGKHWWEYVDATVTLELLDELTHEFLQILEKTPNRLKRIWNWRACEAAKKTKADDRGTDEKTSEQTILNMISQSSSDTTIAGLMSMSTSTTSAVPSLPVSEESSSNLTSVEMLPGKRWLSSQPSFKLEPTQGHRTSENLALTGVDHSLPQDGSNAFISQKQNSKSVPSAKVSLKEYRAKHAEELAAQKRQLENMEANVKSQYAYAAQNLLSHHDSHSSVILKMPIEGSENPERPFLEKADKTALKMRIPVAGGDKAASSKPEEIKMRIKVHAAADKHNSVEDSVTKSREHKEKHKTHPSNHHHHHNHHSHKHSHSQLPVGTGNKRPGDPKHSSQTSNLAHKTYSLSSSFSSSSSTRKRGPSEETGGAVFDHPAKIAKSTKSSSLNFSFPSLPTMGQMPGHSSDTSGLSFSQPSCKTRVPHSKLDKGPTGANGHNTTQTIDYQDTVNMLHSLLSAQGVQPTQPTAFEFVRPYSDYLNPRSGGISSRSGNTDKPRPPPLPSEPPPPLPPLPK

Test [2] deals with CDK2/Cyclin E1 complex (Homo sapiens, UniProt P24941). The test is described as follows: CDK2 kinase inhibition assay (Caliper/LabChip EZ Reader). The settings on record: CDK2/Cyclin E1 0.5 nM, ATP 2 mM, 35 min at 27° C. Type of test: biochemical. In a few lines: as §1
The test system of test [3] is A673 cells. Put plainly: Inhibition of proliferation of A673 cells (CyQUANT, 72 hour). Format: cell-based, human. The conditions noted are these: read-out: Inhibition of Proliferation of A673 Cells (calculated IC50). In a few lines: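 Human Ewing's sarcoma A673 cells in DMEM + 10% FBS + 1 mM sodium pyruvate, 37 °C, 5% CO2. Compounds in 0.5-log serial dilutions, stated range 4 μM to […], for 72 h. Anti-proliferative effect read with CyQUANT per kit directions.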

Test [4] concerns the target T1, CDK12 (aa686-1082)/Cyclin K complex (Homo sapiens, UniProt Q9NYV4).
T1 construct: CDK12 (aa686-1082)/Cyclin K complex
The test is described as follows: CDK12 kinase inhibition assay (Caliper/LabChip EZ Reader). Format: biochemical. The conditions noted are these: CDK12 (aa686-1082)/Cyclin K 50 nM, ATP 2 mM, 3 hr at 27° C. In a few lines:
as §1

Test [5] addresses CDK7/Cyclin H/MAT1 complex (Homo sapiens, UniProt P50613). Put plainly: CDK7 kinase inhibition assay (Caliper/LabChip EZ Reader). Format: biochemical. The conditions noted are these: CDK7/Cyclin H/MAT1 6 nM, ATP 2 mM, 35 min at 27° C. In a few lines: as §1

T1 sequence (Q9NYV4 686-1082): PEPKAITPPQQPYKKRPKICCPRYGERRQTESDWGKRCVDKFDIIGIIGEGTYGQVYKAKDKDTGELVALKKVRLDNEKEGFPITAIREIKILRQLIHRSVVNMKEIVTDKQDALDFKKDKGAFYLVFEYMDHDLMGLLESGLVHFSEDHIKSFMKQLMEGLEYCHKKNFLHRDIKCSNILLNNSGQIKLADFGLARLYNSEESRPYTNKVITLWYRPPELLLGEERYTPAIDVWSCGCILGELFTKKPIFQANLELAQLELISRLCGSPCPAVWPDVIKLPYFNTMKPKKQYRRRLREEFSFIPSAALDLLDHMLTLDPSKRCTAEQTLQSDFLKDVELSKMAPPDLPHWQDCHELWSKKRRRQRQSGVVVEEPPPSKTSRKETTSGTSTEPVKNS
T1 sequence (O75909 whole entry partner, the tested form may be a part): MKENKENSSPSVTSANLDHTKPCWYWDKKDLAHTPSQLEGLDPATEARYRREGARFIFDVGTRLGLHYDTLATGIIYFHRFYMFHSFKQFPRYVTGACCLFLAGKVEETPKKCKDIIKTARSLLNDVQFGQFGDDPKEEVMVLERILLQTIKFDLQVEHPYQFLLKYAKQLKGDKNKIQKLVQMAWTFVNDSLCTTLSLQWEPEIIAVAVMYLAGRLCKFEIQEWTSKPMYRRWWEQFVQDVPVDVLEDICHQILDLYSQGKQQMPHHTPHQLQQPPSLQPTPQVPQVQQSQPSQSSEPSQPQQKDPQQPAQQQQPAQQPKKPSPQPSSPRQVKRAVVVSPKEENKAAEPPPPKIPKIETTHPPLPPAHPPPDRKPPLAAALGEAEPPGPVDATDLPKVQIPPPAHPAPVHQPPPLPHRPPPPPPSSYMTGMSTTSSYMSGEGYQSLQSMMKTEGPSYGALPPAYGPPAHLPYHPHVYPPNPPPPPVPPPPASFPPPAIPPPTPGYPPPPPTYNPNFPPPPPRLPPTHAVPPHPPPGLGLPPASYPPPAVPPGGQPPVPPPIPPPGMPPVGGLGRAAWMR
Sequence of CDK7/Cyclin H/MAT1 complex (P50613 whole entry): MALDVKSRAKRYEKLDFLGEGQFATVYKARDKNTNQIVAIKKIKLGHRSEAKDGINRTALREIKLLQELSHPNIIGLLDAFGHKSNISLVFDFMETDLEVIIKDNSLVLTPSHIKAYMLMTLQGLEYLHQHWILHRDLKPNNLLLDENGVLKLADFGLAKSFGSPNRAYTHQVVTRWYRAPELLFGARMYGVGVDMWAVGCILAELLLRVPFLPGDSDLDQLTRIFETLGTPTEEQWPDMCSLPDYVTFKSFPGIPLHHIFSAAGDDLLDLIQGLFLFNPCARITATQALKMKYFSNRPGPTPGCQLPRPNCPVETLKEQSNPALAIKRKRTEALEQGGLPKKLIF
Sequence of CDK7/Cyclin H/MAT1 complex (P51946 whole entry partner): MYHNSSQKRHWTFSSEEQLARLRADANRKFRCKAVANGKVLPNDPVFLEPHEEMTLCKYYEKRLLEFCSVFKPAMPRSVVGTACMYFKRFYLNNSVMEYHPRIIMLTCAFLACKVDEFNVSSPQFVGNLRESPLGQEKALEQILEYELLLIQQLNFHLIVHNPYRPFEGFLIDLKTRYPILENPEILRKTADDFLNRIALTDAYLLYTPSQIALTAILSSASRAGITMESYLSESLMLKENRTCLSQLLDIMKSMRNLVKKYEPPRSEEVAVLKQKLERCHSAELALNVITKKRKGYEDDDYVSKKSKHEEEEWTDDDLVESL
Sequence of CDK7/Cyclin H/MAT1 complex (P51948 whole entry partner): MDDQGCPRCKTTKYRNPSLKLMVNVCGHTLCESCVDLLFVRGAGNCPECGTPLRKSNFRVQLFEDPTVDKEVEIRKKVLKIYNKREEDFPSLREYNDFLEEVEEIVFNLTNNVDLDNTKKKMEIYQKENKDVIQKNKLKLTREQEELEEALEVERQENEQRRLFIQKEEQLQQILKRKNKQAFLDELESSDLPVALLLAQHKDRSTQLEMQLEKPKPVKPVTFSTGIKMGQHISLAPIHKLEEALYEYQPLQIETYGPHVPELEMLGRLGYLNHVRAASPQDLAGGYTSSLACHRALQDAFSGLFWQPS

Consider `CS(=O)(=O)Cc1ccc2c(-c3nc(NC4CCCNC4)ncc3C(F)(F)F)c[nH]c2c1` (centres unmarked) [Compound 219], for which the IC50 in test [1] was 200 to 5000 nM; in test [2] it was 200 to 5000 nM; in test [3], 20 to 200 nM; in test [4], 200 to 5000 nM; in test [5] it was under 20 nM.

As to `CC1CNCC(Nc2ncc(Cl)c(-c3c[nH]c4ccccc34)n2)C1` (centres unmarked) [Compound 201], the IC50 in test [1] was 200 to 5000 nM; in test [2], 200 to 5000 nM; in test [3], under 20 nM; in test [4] it was 20 to 200 nM; in test [5] it was under 20 nM.

In the case of `CC(=O)c1cnc(NC2CCCNC2)nc1-c1c[nH]c2ccccc12` (centres unmarked) [Compound 208], the IC50 in test [1] is at least 5000 nM; in test [2], at least 5000 nM; in test [3], 20 to 200 nM; in test [4], 200 to 5000 nM; in test [5], 20 to 200 nM.

As for `CC1(C)CNC[C@@H](Nc2ncc(C(F)(F)F)c(-c3c[nH]c4ccccc34)n2)C1` [Compound 243], the IC50 is 200 to 5000 nM in test [1]; 200 to 5000 nM in test [2]; under 20 nM in test [3]; 20 to 200 nM in test [4]; under 20 nM in test [5].

Consider `CC1(C)CCNC[C@@H]1Nc1ncc(C(F)(F)F)c(-c2c[nH]c3ccccc23)n1` [Compound 209], for which the IC50 in test [1] was at least 5000 nM; in test [2] it was at least 5000 nM; in test [3], 20 to 200 nM; in test [4], at least 5000 nM; in test [5], 200 to 5000 nM.

For the compound `CC(C)CN1CCCC(Nc2ncc(Cl)c(-c3c[nH]c4ccccc34)n2)C1` (centres unmarked) [Compound 145], the IC50 in test [1] is at least 5000 nM; in test [2] it was at least 5000 nM; in test [3], 200 to 5000 nM; in test [4] it was 200 to 5000 nM; in test [5], 20 to 200 nM.

In the case of `Clc1cnc(N[C@H]2CN3CCC2CC3)nc1-c1c[nH]c2ccccc12` [Compound 134], the IC50 in test [1] was at least 5000 nM; in test [2], at least 5000 nM; in test [3] it was 200 to 5000 nM; in test [4] it was at least 5000 nM; in test [5], at least 5000 nM.

As to `C=Cc1cnc(NC2CCCNC2)nc1-c1c[nH]c2ccccc12` (centres unmarked) [Compound 218], the IC50 in test [1] was 200 to 5000 nM; in test [2], 200 to 5000 nM; in test [3], 20 to 200 nM; in test [4], 200 to 5000 nM; in test [5] it was under 20 nM.

On to `Fc1cccc2c(-c3nc(N[C@H]4CCCNC4)ncc3C(F)(F)F)n[nH]c12` [Compound 156], for which the IC50 is 200 to 5000 nM in test [1]; 200 to 5000 nM in test [2]; under 20 nM in test [3]; 200 to 5000 nM in test [4]; under 20 nM in test [5].

On to `CCc1cnc(NC2CCCNC2)nc1-c1n[nH]c2cc(C#N)ccc12` (centres unmarked) [Compound 275], for which the IC50 in test [1] is 200 to 5000 nM; in test [2], 200 to 5000 nM; in test [3], 20 to 200 nM; in test [4], 200 to 5000 nM; in test [5], under 20 nM.

In the case of `Cc1ccc2[nH]cc(-c3nc(NC4CCCNC4)ncc3Cl)c2c1` (centres unmarked) [Compound 108], the IC50 is 200 to 5000 nM in test [1]; 200 to 5000 nM in test [2]; 200 to 5000 nM in test [3]; 200 to 5000 nM in test [4]; 20 to 200 nM in test [5].

As for `CC1CCNCC1Nc1ncc(Cl)c(-c2c[nH]c3ccccc23)n1` (centres unmarked) [Compound 125], the IC50 is at least 5000 nM in test [1]; at least 5000 nM in test [2]; 200 to 5000 nM in test [3]; at least 5000 nM in test [4]; 20 to 200 nM in test [5].

As for `COc1cnc(N[C@H]2CCCNC2)nc1-c1c[nH]c2ccccc12` [Compound 189], the IC50 in test [1] is at least 5000 nM; in test [2] it was at least 5000 nM; in test [3], 200 to 5000 nM; in test [4], at least 5000 nM; in test [5] it was 200 to 5000 nM.

As to `CN1CCCC(Nc2ncc(Cl)c(-c3c[nH]c4ccccc34)n2)C1` (centres unmarked) [Compound 136], the IC50 in test [1] is 200 to 5000 nM; in test [2] it was 200 to 5000 nM; in test [3], 20 to 200 nM; in test [4], 200 to 5000 nM; in test [5], under 20 nM.

Regarding `FC(F)(F)c1cnc(NC2CCCNC2)nc1-c1c[nH]c2cc(-c3ncc[nH]3)ccc12` (centres unmarked) [Compound 202], the IC50 was 200 to 5000 nM in test [1]; 200 to 5000 nM in test [2]; 20 to 200 nM in test [3]; at least 5000 nM in test [4]; under 20 nM in test [5].

In the case of `FC(F)(F)c1cnc(N[C@H]2CCCNC2)nc1-c1c[nH]c2cc(-c3ccncc3)ccc12` [Compound 224], the IC50 in test [1] is 200 to 5000 nM; in test [2] it was 200 to 5000 nM; in test [3] it was 20 to 200 nM; in test [4] it was 200 to 5000 nM; in test [5] it was under 20 nM.

As to `C#Cc1cnc(NC2CCCNC2)nc1-c1c[nH]c2ccccc12` (centres unmarked) [Compound 194], the IC50 in test [1] is 200 to 5000 nM; in test [2] it was 200 to 5000 nM; in test [3], under 20 nM; in test [4], 200 to 5000 nM; in test [5], under 20 nM.

In the case of `FC(F)(F)c1cnc(NC2CCCNC2)nc1-c1c[nH]c2cc(-c3cccnc3)ccc12` (centres unmarked) [Compound 223], the IC50 was 200 to 5000 nM in test [1]; 200 to 5000 nM in test [2]; 20 to 200 nM in test [3]; 200 to 5000 nM in test [4]; under 20 nM in test [5].

With `FC(F)(F)c1cnc(NC2CCC3(CC3)NC2)nc1-c1c[nH]c2ccccc12` (centres unmarked) [Compound 212], the IC50 in test [1] is 200 to 5000 nM; in test [2], 200 to 5000 nM; in test [3], under 20 nM; in test [4] it was 200 to 5000 nM; in test [5], under 20 nM.

In the case of `FC(F)(F)c1cnc(NC2CCCNC2)nc1-c1c[nH]c2cc(-c3cn[nH]c3)ccc12` (centres unmarked) [Compound 188], the IC50 is 200 to 5000 nM in test [1]; 200 to 5000 nM in test [2]; 20 to 200 nM in test [3]; 200 to 5000 nM in test [4]; under 20 nM in test [5].

Consider `CCc1cnc(NC2CCCNC2)nc1-c1n[nH]c2ncccc12` (centres unmarked) [Compound 262], for which the IC50 in test [1] is 200 to 5000 nM; in test [2], 200 to 5000 nM; in test [3], 20 to 200 nM; in test [4], 200 to 5000 nM; in test [5] it was under 20 nM.

`N#Cc1ccc2c(-c3nc(NC4CCCNC4)ncc3C(F)(F)F)c[nH]c2c1C#N` (centres unmarked) [Compound 258]: the IC50 in test [1] is 200 to 5000 nM; in test [2], 200 to 5000 nM; in test [3], 20 to 200 nM; in test [4], 200 to 5000 nM; in test [5], under 20 nM.

For `FC(F)(F)c1cnc(NC2CNCC(c3nnc4ccccn34)C2)nc1-c1c[nH]c2ccccc12` (centres unmarked) [Compound 266], the IC50 was 200 to 5000 nM in test [1]; 200 to 5000 nM in test [2]; 20 to 200 nM in test [3]; 200 to 5000 nM in test [4]; 20 to 200 nM in test [5].

On to `Clc1cnc(NC2CNCCC2c2ccccc2)nc1-c1c[nH]c2ccccc12` (centres unmarked) [Compound 116], for which the IC50 in test [1] is at least 5000 nM; in test [2] it was at least 5000 nM; in test [3], 200 to 5000 nM; in test [4], at least 5000 nM; in test [5], at least 5000 nM.

In the case of `Clc1cnc(NC2CN3CCC2CC3)nc1-c1c[nH]c2ccccc12` (centres unmarked) [Compound 131], the IC50 in test [1] is at least 5000 nM; in test [2], at least 5000 nM; in test [3] it was 200 to 5000 nM; in test [4], at least 5000 nM; in test [5] it was at least 5000 nM.

`Clc1cnc(NC2CCCNC2)nc1-c1cn(-c2ccccc2)c2ccccc12` (centres unmarked) [Compound 132]: the IC50 is 200 to 5000 nM in test [1]; at least 5000 nM in test [2]; 200 to 5000 nM in test [3]; at least 5000 nM in test [4]; 200 to 5000 nM in test [5].

Regarding `N#Cc1cnc(NC2CCCNC2)nc1-c1c[nH]c2ccccc12` (centres unmarked) [Compound 157], the IC50 in test [1] is 200 to 5000 nM; in test [2], 200 to 5000 nM; in test [3], under 20 nM; in test [4], 200 to 5000 nM; in test [5], under 20 nM.

Turning to `Cn1cc(-c2ccc3c(-c4nc(NC5CCCNC5)ncc4C(F)(F)F)c[nH]c3c2)cc1C#N` (centres unmarked) [Compound 225], the IC50 in test [1] is 200 to 5000 nM; in test [2] it was 200 to 5000 nM; in test [3], 20 to 200 nM; in test [4] it was 200 to 5000 nM; in test [5] it was under 20 nM.

With `Fc1cc2[nH]nc(-c3nc(NC4CCCNC4)ncc3C(F)(F)F)c2cc1F` (centres unmarked) [Compound 152], the IC50 is 200 to 5000 nM in test [1]; 200 to 5000 nM in test [2]; under 20 nM in test [3]; 200 to 5000 nM in test [4]; under 20 nM in test [5].

For the compound `COCCN1CCCC(Nc2ncc(Cl)c(-c3c[nH]c4ccccc34)n2)C1` (centres unmarked) [Compound 149], the IC50 in test [1] was 200 to 5000 nM; in test [2], 200 to 5000 nM; in test [3], 20 to 200 nM; in test [4] it was 200 to 5000 nM; in test [5], 20 to 200 nM.

Take `Clc1cnc(NC2CCCNC2)nc1-c1c[nH]c2ccccc12` (centres unmarked) [Compound 101]: the IC50 in test [1] is 200 to 5000 nM; in test [2], 200 to 5000 nM; in test [3], 20 to 200 nM; in test [4], 200 to 5000 nM; in test [5], 200 to 5000 nM.
